The target in the assay is T1, IKKβ (Homo sapiens, UniProt O14920).
T1 construct: gene IKBKB
T1 sequence (O14920 1-756): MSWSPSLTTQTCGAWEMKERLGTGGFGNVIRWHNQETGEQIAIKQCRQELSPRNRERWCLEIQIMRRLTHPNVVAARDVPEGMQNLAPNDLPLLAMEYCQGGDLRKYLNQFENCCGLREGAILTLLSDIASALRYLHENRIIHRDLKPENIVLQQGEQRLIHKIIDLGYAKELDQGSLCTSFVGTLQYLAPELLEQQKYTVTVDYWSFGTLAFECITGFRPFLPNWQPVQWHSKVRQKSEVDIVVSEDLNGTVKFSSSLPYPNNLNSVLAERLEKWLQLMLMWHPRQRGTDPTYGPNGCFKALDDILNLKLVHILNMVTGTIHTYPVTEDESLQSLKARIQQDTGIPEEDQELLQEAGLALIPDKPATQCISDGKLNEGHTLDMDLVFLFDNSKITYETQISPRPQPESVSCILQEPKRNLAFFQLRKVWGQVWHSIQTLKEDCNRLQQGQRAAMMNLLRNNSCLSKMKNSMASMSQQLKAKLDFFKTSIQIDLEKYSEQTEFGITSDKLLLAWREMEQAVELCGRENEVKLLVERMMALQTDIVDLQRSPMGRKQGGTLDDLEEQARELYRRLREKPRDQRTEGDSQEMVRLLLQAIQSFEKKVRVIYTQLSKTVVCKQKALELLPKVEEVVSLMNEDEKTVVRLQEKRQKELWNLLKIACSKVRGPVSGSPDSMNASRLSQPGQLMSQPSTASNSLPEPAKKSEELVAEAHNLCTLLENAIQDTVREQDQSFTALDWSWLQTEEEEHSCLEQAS
Kind of assay: ADP-Glo IKKβ kinase assay (Promega), […] ng IKKβ, IKKtide, […] ATP. It counts as biochemical. (In general: In ADP-Glo the light output rises with the ADP produced.)

The text below walks through data of publication PMC6102213, “Repurposing Thioridazine (TDZ) as an anti-inflammatory agent” (Scientific Reports, 2018).

SMILES strings stand for the structures.

One may read the IC50 as the concentration that inhibits the measured activity by half. Low values mean greater potency in that assay, high ones weaker potency in that assay. On to `CSc1ccc2c(c1)N(CCC1CCCCN1C)c1ccccc1S2` (stereo not shown) [TDZ, Thioridazine], for which 3.63 nM corresponded to half-maximal inhibition (IC50).
